PMC7522794, “Synthesis and evaluation of novel 2,4-disubstituted arylthiazoles against T. brucei” (RSC Medicinal Chemistry, 2019)
Where a name gives a salt, the structure may show the parent alone.

What was measured:
[1] = tested on: Bloodstream form T. brucei (strain 427); assay: Trypanocidal activity against bloodstream form T. brucei (Alamar Blue growth inhibition); type: cell-based, Trypanosoma brucei; conditions: 48 hours + overnight Alamar Blue; for IC50: concentration that inhibits growth by 50%; for IC90: concentration that inhibits growth by 90%
Procedure: Bloodstream form T. brucei (strain 427) were cultured at 37 °C in modified Iscove's medium. Trypanocidal activity was assessed by growing parasites in microtiter plates in the presence of various drug concentrations. […] The plates were incubated for 48 hours at 37 °C and 20 μL Alamar Blue was then added to each well. After an additional overnight incubation, the fluorescence was determined. Inhibition of growth was calculated by comparison with control values and IC50 and IC90 values were determined in triplicate using linear regression analysis.

[2] = Cytotoxic activity against rat skeletal myoblast L6 cells (Alamar Blue); type: cell-based; conditions: rat, L6 cells (rat skeletal muscle line); cytotoxicity, 6 days incubation + 8 hours Alamar Blue
Procedure: (§1) Cytotoxicity against mammalian cells was assessed using microtitre plates. Briefly, L6 cells (a rat skeletal muscle line) were seeded at 1 × 10^4 mL^–1 in 200 μL of growth medium containing 7 different compound concentrations in a range previously established to encompass both the IC50 and IC90 values. The plates were incubated for 6 days at 37 °C and 20 μL Alamar Blue (Biosource UK Ltd) was then added to each well. After an additional 8 hours incubation, the fluorescence was determined using a FLUOstar Omega fluorescent plate reader (BMG Labtech). Inhibition of growth was calculated by comparison with control values and IC50 and IC90 values were determined in triplicate using linear regression analysis.

L6 cells = assay: as above; type: cell-based; conditions: ratio of IC50 values obtained with L6 cells and T. brucei
Procedure: as §1

| Compound | IC50 ([1]; Trypanosoma brucei) | melting point | other results |
| --- | --- | --- | --- |
| N#CCc1csc(-c2ccc(C34CC5CC(CC(C5)C3)C4)cc2)n1 [Compound 2e, 2-{2-[4-(1-Tricyclo[3.3.1.1^3,7]decyl)phenyl]thiazol-4-yl}acetonitrile] | > 20 µM | 159 to 160 °C | – |
| CNCCc1csc(-c2ccc(C34CC5CC(CC(C5)C3)C4)cc2)n1 (as salt: fumarate) [Compound 2b, 2-{2-[4-(1-Tricyclo[3.3.1.1^3,7]decyl)phenyl]thiazol-4-yl}-N-methylethan-1-amine] | – | 147 to 149 °C | – |
| CCCC(=O)NCCc1csc(-c2ccc(F)c(C34CC5CC(CC(C5)C3)C4)c2)n1 (as salt: fumarate) [Compound 1e, N-{2-[2-(3-(1-Tricyclo[3.3.1.1^3,7]decyl)-4-fluorophenyl)thiazol-4-yl]ethyl}butylamide] | – | 291 to 293 °C | – |
| O=C(NCCc1csc(-c2ccc(F)c(C34CC5CC(CC(C5)C3)C4)c2)n1)c1ccccc1 [Compound 1f, N-{2-[2-(3-(1-Tricyclo[3.3.1.1^3,7]decyl)-4-fluorophenyl)thiazol-4-yl]ethyl}benzamide] | > 20 µM | – | – |
| CNCCc1csc(-c2ccc(F)c(C34CC5CC(CC(C5)C3)C4)c2)n1 (as salt: hydrochloride) [Compound 1b, 2-{2-[3-(1-Tricyclo[3.3.1.1^3,7]decyl)-4-fluorophenyl]thiazol-4-yl}-N-methylethan-1-amine] | – | 221 to 223 °C | – |
| CN(C)CCc1csc(-c2ccc(C34CC5CC(CC(C5)C3)C4)cc2)n1 (as salt: fumarate) [Compound 2c, 2-{2-[4-(1-Tricyclo[3.3.1.1^3,7]decyl)phenyl]thiazol-4-yl}-N,N-dimethylethan-1-amine] | – | 302 °C (dec.) | – |
| NCCc1csc(-c2ccc(F)c(C34CC5CC(CC(C5)C3)C4)c2)n1 [Compound 1a, 2-{2-[3-(1-Tricyclo[3.3.1.1^3,7]decyl)-4-fluorophenyl]thiazol-4-yl}ethan-1-amine] | 0.42 ± 0.01 µM | – | IC90 ([1]; Trypanosoma brucei): 0.56 ± 0.01 µM; IC50 [2]: 1.05 ± 0.23 µM; S.I. (selectivity index) (L6 cells): 2.5 |
| CNCCc1csc(-c2ccc(C34CC5CC(CC(C5)C3)C4)cc2)n1 [Compound 2b, 2-{2-[4-(1-Tricyclo[3.3.1.1^3,7]decyl)phenyl]thiazol-4-yl}-N-methylethan-1-amine] | 0.59 ± 0.02 µM | – | IC90 ([1]; Trypanosoma brucei): 0.79 ± 0.01 µM; IC50 [2]: 0.96 ± 0.26 µM; S.I. (selectivity index) (L6 cells): 1.6 |
| Br.NCc1nc(-c2ccc(C34CC5CC(CC(C5)C3)C4)cc2)cs1 [Compound 3b, 2-{4-[4-(1-Tricyclo[3.3.1.1^3,7]decyl)phenyl]thiazol-2-yl}methanamine difumarate] | 9.76 ± 0.77 µM | 172 °C (dec.) | IC90 ([1]; Trypanosoma brucei): 12.8 ± 0.2 µM; IC50 [2]: 12.6 ± 0.9 µM |
| OCCc1csc(-c2ccc(C34CC5CC(CC(C5)C3)C4)cc2)n1 [Compound 2g, 2-{2-[4-(1-Tricyclo[3.3.1.1^3,7]decyl)phenyl]thiazol-4-yl}ethan-1-ol] | ~10 µM | 93 to 94 °C | – |
| O=C(NCCc1csc(-c2ccccc2)n1)C12CC3CC(CC(C3)C1)C2 [Compound 4a, N-(2-(2-Phenylthiazol-4-yl)ethyl)(1-tricyclo[3.3.1.1^3,7]decane)carboxamide] | 12.2 ± 0.8 µM | 135 to 136 °C | IC90 ([1]; Trypanosoma brucei): 18.7 ± 0.4 µM |
| N#CSCc1csc(-c2ccc(C34CC5CC(CC(C5)C3)C4)cc2)n1 [Compound 2f, 2-[4-(1-Tricyclo[3.3.1.1^3,7]decyl)phenyl]-4-(thiocyanatemethyl)thiazole] | ~10 µM | 169 to 170 °C | – |
| CC(=O)NCCc1csc(-c2ccc(F)c(C34CC5CC(CC(C5)C3)C4)c2)n1 [Compound 1d, N-{2-[2-(3-(1-Tricyclo[3.3.1.1^3,7]decyl)-4-fluorophenyl]thiazol-4-yl]ethyl}acetamide] | 15.3 ± 0.2 µM | – | IC90 ([1]; Trypanosoma brucei): 18.1 ± 0.2 µM |
| CN(C)CCc1csc(-c2ccc(F)c(C34CC5CC(CC(C5)C3)C4)c2)n1 (as salt: hydrochloride) [Compound 1c, 2-{2-[3-(1-Tricyclo[3.3.1.1^3,7]decyl)-4-fluorophenyl]thiazol-4-yl}-N,N-dimethylethyl-1-amine] | – | 280 to 282 °C | – |
| CNCCc1csc(-c2ccc(F)c(C34CC5CC(CC(C5)C3)C4)c2)n1 [Compound 1b, 2-{2-[3-(1-Tricyclo[3.3.1.1^3,7]decyl)-4-fluorophenyl]thiazol-4-yl}-N-methylethan-1-amine] | 0.9 ± 0.01 µM | – | IC90 ([1]; Trypanosoma brucei): 1.1 ± 0.01 µM; IC50 [2]: 2.01 ± 0.32 µM; S.I. (selectivity index) (L6 cells): 2.2 |
| Cc1ccoc1C(=O)NCCc1csc(-c2ccc(F)c(C34CC5CC(CC(C5)C3)C4)c2)n1 [Compound 1h, N-{2-[2-(3-(1-Tricyclo[3.3.1.1^3,7]decyl)-4-fluorophenyl)thiazol-4-yl]ethyl}-3-methylfuran-2-ylcarboxamide] | > 20 µM | – | – |

| Compound | IC50 ([1]; Trypanosoma brucei) | melting point | other results |
| --- | --- | --- | --- |
| NCCc1csc(-c2ccc(C34CC5CC(CC(C5)C3)C4)cc2)n1 (as salt: hydrochloride) [Compound 2a, 2-{2-[4-(1-Tricyclo[3.3.1.1^3,7]decyl)phenyl]thiazol-4-yl}ethan-1-amine] | – | 225 °C (dec.) | – |
| O=C(NCCc1csc(-c2ccc(F)c(C34CC5CC(CC(C5)C3)C4)c2)n1)c1ccc(F)cc1 (as salt: fumarate) [Compound 1g, N-{2-[2-(3-(1-Tricyclo[3.3.1.1^3,7]decyl)-4-fluorophenyl)thiazol-4-yl]ethyl}-4-fluorobenzamide] | – | 226 to 227 °C | – |
| NCCc1csc(-c2ccc(F)c(C34CC5CC(CC(C5)C3)C4)c2)n1 (as salt: hydrochloride) [Compound 1a, 2-{2-[3-(1-Tricyclo[3.3.1.1^3,7]decyl)-4-fluorophenyl]thiazol-4-yl}ethan-1-amine] | – | 246 to 248 °C | – |
| CCCC(=O)NCCc1csc(-c2ccc(F)c(C34CC5CC(CC(C5)C3)C4)c2)n1 [Compound 1e, N-{2-[2-(3-(1-Tricyclo[3.3.1.1^3,7]decyl)-4-fluorophenyl)thiazol-4-yl]ethyl}butylamide] | > 25 µM | – | – |
| O=C(NCCc1csc(-c2ccc(F)c(C34CC5CC(CC(C5)C3)C4)c2)n1)c1ccccc1 (as salt: fumarate) [Compound 1f, N-{2-[2-(3-(1-Tricyclo[3.3.1.1^3,7]decyl)-4-fluorophenyl)thiazol-4-yl]ethyl}benzamide] | – | 305 °C (dec.) | – |
| O=C(NCCc1nc(-c2ccccc2)cs1)C12CC3CC(CC(C3)C1)C2 [Compound 4c, N-[2-(4-Phenylthiazol-2-yl)ethyl](1-tricyclo[3.3.1.1^3,7]decane)carboxamide] | 9.82 ± 0.22 µM | 107 to 108 °C | IC90 ([1]; Trypanosoma brucei): 13.1 ± 0.2 µM |
| O=C(NCCc1csc(-c2ccc(F)c(C34CC5CC(CC(C5)C3)C4)c2)n1)N1CCCC1 [Compound 1i, N-(2-(2-(3-(1-Tricyclo[3.3.1.1^3,7]decyl)-4-fluorophenyl)thiazol-4-yl)ethyl)pyrrolidin-1-yl-carboxamide] | > 20 µM | – | – |
| O=C(NCCc1csc(-c2ccc(F)c(C34CC5CC(CC(C5)C3)C4)c2)n1)c1ccc(F)cc1 [Compound 1g, N-{2-[2-(3-(1-Tricyclo[3.3.1.1^3,7]decyl)-4-fluorophenyl)thiazol-4-yl]ethyl}-4-fluorobenzamide] | > 20 µM | – | – |
| [N-]=[N+]=NCCc1csc(-c2ccc(C34CC5CC(CC(C5)C3)C4)cc2)n1 [Compound 2h, 2-[4-(1-Tricyclo[3.3.1.1^3,7]decyl)phenyl]-4-(2-azidoethyl)thiazole] | > 20 µM | – | – |
| 1-{2-[4-(1-Tricyclo[3.3.1.1^3,7]decyl)phenyl]thiazol-4-yl}guanidine [Compound 3e] | – | – | IC50 [1]: ~10 µM |
| CN(C)CCc1csc(-c2ccc(C34CC5CC(CC(C5)C3)C4)cc2)n1 [Compound 2c, 2-{2-[4-(1-Tricyclo[3.3.1.1^3,7]decyl)phenyl]thiazol-4-yl}-N,N-dimethylethan-1-amine] | 1.27 ± 0.07 µM | – | IC90 ([1]; Trypanosoma brucei): 1.6 ± 0.22 µM |
| CC(=O)NCCc1csc(-c2ccc(F)c(C34CC5CC(CC(C5)C3)C4)c2)n1 (as salt: fumarate) [Compound 1d, N-{2-[2-(3-(1-Tricyclo[3.3.1.1^3,7]decyl)-4-fluorophenyl]thiazol-4-yl]ethyl}acetamide] | – | 143 to 145 °C | – |
| CC(=O)NCCc1csc(-c2ccc(C34CC5CC(CC(C5)C3)C4)cc2)n1 [Compound 2d, N-{2-[2-(4-(1-Tricyclo[3.3.1.1^3,7]decyl)phenyl)thiazol-4-yl]ethyl}acetamide] | > 20 µM | – | – |
| O=C(NCCc1csc(-c2ccc(F)c(C34CC5CC(CC(C5)C3)C4)c2)n1)N1CCCC1 (as salt: fumarate) [Compound 1i, N-(2-(2-(3-(1-Tricyclo[3.3.1.1^3,7]decyl)-4-fluorophenyl)thiazol-4-yl)ethyl)pyrrolidin-1-yl-carboxamide] | – | 301 °C (dec.) | – |
| CC(=O)NCCc1csc(-c2ccc(C34CC5CC(CC(C5)C3)C4)cc2)n1 (as salt: fumarate) [Compound 2d, N-{2-[2-(4-(1-Tricyclo[3.3.1.1^3,7]decyl)phenyl)thiazol-4-yl]ethyl}acetamide] | – | 164 to 166 °C | – |
| CC1(C)[C@@H]2CC[C@]1(CS(=O)(=O)NCCc1csc(-c3ccccc3)n1)C(=O)C2 [Compound 4b, 1-((1R,4R)-7,7-Dimethyl-2-oxobicyclo[2.2.1]hept-1-yl)-N-(2-(2-phenylthiazol-4-yl)ethyl)methanesulfonamide] | 20.6 ± 0.7 µM | – | IC90 ([1]; Trypanosoma brucei): 31.1 ± 0.3 µM |
